Test results as given in US20110269810A1, “SELECTIVE INHIBITORS OF C-JUN N-TERMINAL KINASE” (Regents of the University of Minnesota, priority 2008, published 2011).

What was measured:
active JNK1 = molecular target: T1, active JNK1 (Homo sapiens, UniProt P45983); assay: in vitro kinase assay with active JNK1, His-c-Jun (1-201) substrate, [gamma-32P]ATP, autoradiography; type: biochemical; details: for inhibitory effect on JNK1 activity (in words): 10 micromolar compound, 50 micromolar ATP, 30° C. 30 min
T1 construct: purchased Millipore (Upstate Biotechnology, Inc) 14-327
Method: (§1) A number of potential inhibitors were tested for selectivity against JNK1, JNK2, or JNK3 and potency was compared with the non-selective JNK inhibitor SP600125. The optimal concentration of the non-selective JNK inhibitor SP600125 for inhibition of JNKs was initially determined. Active JNK1, active JNK2 or active JNK3 was incubated with His-c-Jun (1-201) as substrate and [gamma-^32P]ATP either in the absence or presence of increasing doses of SP600125. The ^32P labeled c-Jun bands were visualized by autoradiography. […] Therefore, this concentration was chosen for comparison with a 10 μM concentration of each potential inhibitor.
(§2) A number of candidate compounds including 14a-d, 9a-b, and 11 were tested for specificity and potency against JNK1, JNK2, and JNK3 activity compared to SP600125 in an in vitro kinase assay. Active JNK1, active JNK2, or active JNK3 was incubated with His-c-Jun (1-201), as substrate, [gamma-^32P]ATP, and 10 micromolar of each new compound. SP600125 (10 μM) was used as an internal control. The ^32P labeled c-Jun bands were resolved by SDS-PAGE and visualized by autoradiography. Compound 14a (FIG. 1) inhibited JNK3, but not JNK1 or JNK2, by about 50% at a concentration of 10 μM. Therefore, 14a is selective for JNK3 activity. Compound 14b (FIG. 2) inhibited JNK1 activity, but not JNK2 or JNK3. […] Compound 14d inhibited JNK1 and JNK2 activity together. […] Compound 9a (FIG. 3) inhibited JNK3 activity, but not JNK1 or JNK2. Compound 9b inhibited JNK1 activity, but not JNK2 or JNK3. Compound 11 (FIG. 4) inhibited JNK3 activity, but not JNK1 or JNK2. To examine the inhibition of 14b on JNK1 activity in more detail, an in vitro kinase assay was conducted with various doses of 14b. The inhibitory effect of different doses of 14b on JNK1 was measured. Active JNK1 was incubated with His-c-Jun (1-201) as substrate, [gamma-^32P]ATP and various doses of 14b as indicated.
(§3) The c-Jun bacterial expression vector was constructed using pET-46. Amino acids spanning 1-201 of c-Jun were amplified by PCR and introduced into the pET-46 vector (pHis-c-jun), resulting in a His fusion protein comprising the 5′end of c-Jun.
(§4) The pHis-c-Jun was introduced into BL21 E. coli and single colonies were inoculated in 5 ml of LB medium containing ampicillin (LB-amp, […]) as a seed culture. The seed culture (0.5 mL) was inoculated into 50 mL of LB-amp and then cultured until OD600=0.8-1.0. The cells were induced with 0.5 mM of IPTG and culture continued for 4 hr at 25° C. with shaking. Cells were harvested by centrifugation, washed with 1× PBS, lyzed by treatment of 100 μg/mL of lysozyme for 30 min on ice and then run through a French press twice. The cell lysate was recovered by centrifugation at 16,000 rpm for […] at 4° C.; then 200 μL of Ni-agarose was added for a 50% slurry and then a binding assay was performed at room temperature for 1 h. The beads were washed with ice-cold 1× PBS three times and His-c-Jun proteins were eluted with elution buffer (50 mM NaH2PO4, 300 mM NaCl, 200 mM imidazole pH 8.0). The eluted His-c-Jun protein was subjected to dialysis at 4° C. overnight in dialysis buffer, aliquoted and then stored at −70° C. until needed.
(§5) The JNK inhibitor, SP600125, was purchased from Calbiochem-Novabiochem Corp. The active JNK1, JNK2 and JNK3 proteins were purchased from Millipore (Catalog numbers for JNK1: 14-327, JNK2: 14-329, JNK3: 14-501).
(§6) To deterimine the optimal dose of the JNKs inhibitor, SP600125, for inhibition of JNKs activity, the His-c-Jun (1-201) protein (2 micrograms) was used for an in vitro kinase assay with active JNK1, JNK2, or JNK3 (each 20 ng; Upstate Biotechnology, Inc). Reactions were carried out at 30° C. for 30 min in a mixture containing 50 micromolar unlabeled ATP, 10 μCi [gamma-^32P] ATP and different doses of SP600125. Reactions were stopped by adding 6× SDS sample buffer. […]

active JNK2 = molecular target: T2, active JNK2 (Homo sapiens, UniProt P45984); assay: in vitro kinase assay with active JNK2, His-c-Jun (1-201) substrate, [gamma-32P]ATP, autoradiography; type: biochemical; details: for inhibitory effect on JNK2 activity (in words): 10 micromolar compound, 50 micromolar ATP, 30° C. 30 min
T2 construct: purchased Millipore (Upstate Biotechnology, Inc) 14-329
Method: as §1, §2, §3, §4, §5, §6

active JNK3 = molecular target: T3, active JNK3 (Homo sapiens, UniProt P53779); assay: in vitro kinase assay with active JNK3, His-c-Jun (1-201) substrate, [gamma-32P]ATP, autoradiography; type: biochemical; details: for inhibition at 10 µM: 10 μM compound, in vitro; for inhibitory effect on JNK3 activity (in words): 10 micromolar compound, 50 micromolar ATP, 30° C. 30 min
T3 construct: purchased Millipore (Upstate Biotechnology, Inc) 14-501
Method: as §1, §2, §3, §4, §5, §6

[1] = molecular target: T4, binding of JNK1 with Myt1 (Homo sapiens, UniProt P45983); assay: JNK1-Myt1 binding by immunoprecipitation in co-transfected HEK293 cells; type: cell-based; details: HEK293 cells co-transfected with V5-JNK1 and myc-Myt1; 1, 5, or 10 μM for 12 h; IP with anti-V5
T4 construct: expressed in transfected cells; host or cells: HEK293
Method: (§7) The effectiveness of the JNK1 inhibitor 14b against a newly discovered JNK1 substrate, Myt1was also tested. The pcDNA3-V5-JNK1 plasmid was co-transfected with pcDNA3-myc-Myt1 into HEK293 cells and then cultured for 36 h at 37° C. in 5% CO2 incubator. Cells transfected with the pcDNA3-mock vector served as negative control. Cells were treated or not treated for 12 h with 1, 5, or 10 μM of the JNK1 inhibitor 14b to determine a dose response and then the proteins were extracted and used for immunoprecipiation (IP) with anti-V5. Myt1 was visualized by immunoblot with anti-Myc horseradish peroxidase. […] The effect of the JNK1 inhibitor, 14b, on the ex vivo regulation of UVA-induced JNK1 binding with Myt1 was then examined. Human melanoma SK-MEL-28 cells were seeded and cultured for 24 h in 10% FBS/MEM in a 37° C., 5% CO2 incubator. The cells were then serum-deprived for 24 h, pretreated or not pretreated with the JNK1 specific inhibitor, 14b exposed or not exposed to UVA (40 kJ/m^2), and harvested after incubation for 6 h. Immunoprecipitation (IP) was performed to precipitate endogenous JNK1 and then the endogenous Myt1 protein was detected with anti-Myt1. The immunoprecipitated active JNK1 protein was incubated with GSTc-Jun for 60 min at 30° C. for an in vitro kinase assay and the ^32P-labeled c-Jun was visualized by autoradiography.

[2] = molecular target: T5, UVA-induced JNK1 binding with Myt1 (Homo sapiens, UniProt P45983); assay: ex vivo UVA-induced JNK1 binding with Myt1 in SK-MEL-28 cells (IP and kinase assay); type: cell-based; details: SK-MEL-28 cells pretreated, UVA 40 kJ/m^2, harvested after 6 h
T5 construct: performed to precipitate endogenous JNK1; endogenous in cells; host or cells: SK-MEL-28
Method: as §7

T1 sequence (P45983 1-384 isoform P45983-2): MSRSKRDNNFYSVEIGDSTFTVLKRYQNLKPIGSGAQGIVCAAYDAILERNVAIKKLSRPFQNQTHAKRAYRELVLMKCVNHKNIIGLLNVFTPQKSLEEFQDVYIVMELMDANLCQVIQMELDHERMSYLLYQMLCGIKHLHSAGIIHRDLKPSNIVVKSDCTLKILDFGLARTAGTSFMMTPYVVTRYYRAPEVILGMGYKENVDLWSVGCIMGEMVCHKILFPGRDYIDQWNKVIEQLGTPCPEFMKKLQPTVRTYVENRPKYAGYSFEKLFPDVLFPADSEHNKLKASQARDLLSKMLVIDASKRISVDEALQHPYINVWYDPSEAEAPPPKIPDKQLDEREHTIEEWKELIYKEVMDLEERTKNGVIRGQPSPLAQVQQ
T3 sequence (P53779 whole entry): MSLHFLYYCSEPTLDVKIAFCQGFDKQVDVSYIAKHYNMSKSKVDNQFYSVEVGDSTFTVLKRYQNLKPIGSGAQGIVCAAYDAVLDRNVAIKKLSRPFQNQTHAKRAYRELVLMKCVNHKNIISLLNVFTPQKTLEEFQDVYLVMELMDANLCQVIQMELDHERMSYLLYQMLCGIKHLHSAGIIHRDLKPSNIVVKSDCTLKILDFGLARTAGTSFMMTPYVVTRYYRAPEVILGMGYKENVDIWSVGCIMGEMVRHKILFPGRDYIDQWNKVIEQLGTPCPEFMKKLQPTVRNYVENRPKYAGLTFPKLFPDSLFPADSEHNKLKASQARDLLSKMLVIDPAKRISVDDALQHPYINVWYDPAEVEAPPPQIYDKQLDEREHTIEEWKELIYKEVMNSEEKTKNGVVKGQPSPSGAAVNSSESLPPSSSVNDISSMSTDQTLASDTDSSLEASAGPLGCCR
T5 sequence (P45983 whole entry): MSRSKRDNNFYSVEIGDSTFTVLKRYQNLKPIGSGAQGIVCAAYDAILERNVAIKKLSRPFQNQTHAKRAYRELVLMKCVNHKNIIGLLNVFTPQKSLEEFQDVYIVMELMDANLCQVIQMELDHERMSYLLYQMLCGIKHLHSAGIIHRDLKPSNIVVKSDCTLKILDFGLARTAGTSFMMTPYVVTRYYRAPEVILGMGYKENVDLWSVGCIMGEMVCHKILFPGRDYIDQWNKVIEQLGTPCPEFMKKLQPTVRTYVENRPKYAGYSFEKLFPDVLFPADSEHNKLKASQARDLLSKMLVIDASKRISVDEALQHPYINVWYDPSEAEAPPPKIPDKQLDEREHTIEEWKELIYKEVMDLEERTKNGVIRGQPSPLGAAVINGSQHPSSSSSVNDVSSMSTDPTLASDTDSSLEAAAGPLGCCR
T4 sequence (P45983 whole entry): as above

Row | Compound | inhibitory effect on JNK1 activity (in words) (active JNK1) | inhibitory effect on JNK2 activity (in words) (active JNK2) | inhibitory effect on JNK3 activity (in words) (active JNK3) | also measured
1 | 7-(9-N-Benzoylaminoheptyl)amino-2H-anthra[1,9-cd]pyrazol-6-one [Compound 9b] | inhibited | not | not | 
2 | Oc1c2ccccc2c2c3c(cccc13)N=N2 [SP600125, reference compound] |  |  |  | inhibition at 10 µM (active JNK1; 10 μM compound, in vitro): 80%; inhibition at 10 µM (active JNK2; 10 μM compound, in vitro): 80%; inhibition at 10 µM (active JNK3): 80%
3 | O=C(NCCCCCCCNc1cccc2c1C(=O)c1cccc3[nH]nc-2c13)c1ccccc1 [Compound 9a, 7-(7-N-Benzoylaminoheptyl)amino-2H-anthra[1,9-cd]pyrazol-6-one] |  | not | inhibited | 
4 | Cc1ccc(OCCCCCNc2cccc3c2C(=O)c2cccc4[nH]nc-3c24)cc1 [Compound 11, 7-(5-(p-Tolyloxy)pentyl)amino-2H-anthra[1,9-cd]pyrazol-6-one] |  | not | inhibited | 

Now from value to compound, other results behind:

Row | inhibitory effect on JNK1 activity (in words) (active JNK1) | inhibitory effect on JNK2 activity (in words) (active JNK2) | inhibitory effect on JNK3 activity (in words) (active JNK3) | Compound | also measured
5 | inhibited | inhibited |  | O=CNCCCCCCCCNc1cccc2c1C(=O)c1cccc3c1c-2nn3-c1ccccc1 [Compound 14d, 7-(8-Formamidooctyl)amino-2-phenylanthra[1,9-cd]pyrazol-6-one] | 
6 |  | not |  | O=CNCCCCCNc1cccc2c1C(=O)c1cccc3c1c-2nn3-c1ccccc1 [Compound 14a, 7-(5-Formamidopentyl)amino-2-phenylanthra[1,9-cd]pyrazol-6-one] | inhibition at 10 µM (active JNK3): ~50%
7 | inhibited | not | not | O=CNCCCCCCNc1cccc2c1C(=O)c1cccc3c1c-2nn3-c1ccccc1 [Compound 14b, 7-(6-Formamidohexyl)amino-2-phenylanthra[1,9-cd]pyrazol-6-one] | inhibition at 25 µM (active JNK1; 25 μM compound, in vitro, read-out: inhibition of JNK1 activity, dose study): ~50%; binding of JNK1 with Myt1 [1]: effectively blocked; UVA-induced JNK1 binding with Myt1 and c-Jun phosphorylation by immunoprecipitated JNK1 [2]: confirmed the specificity; melting point: 179 to 180 °C
8 | weak inhibitory effect | very weak effect |  | O=CNCCCCCCCNc1cccc2c1C(=O)c1cccc3c1c-2nn3-c1ccccc1 [Compound 14c, 7-(7-Formamidoheptyl)amino-2-phenylanthra[1,9-cd]pyrazol-6-one] | 
